Reference: paper PMC6403271, “Characterization, mechanism of action and optimization of activity of a novel peptide-peptoid hybrid against bacterial pathogens involved in canine skin infections” (Scientific Reports, 2019)
In brackets after ≈: the same amount, converted by molar mass. Entries after “also recorded” stand apart in the source; their conditions may differ. Read-outs that look alike come from different tables or passages of the source. Square brackets hold non-standard residues; d marks the D form. Peptide text beside a SMILES is read from it. N(1-naphthylmethyl)Gly = O=C(O)CNCc1cccc2ccccc12; 2Nal = N[C@@H](Cc1ccc2ccccc2c1)C(=O)O; d1Nal = N[C@H](Cc1cccc2ccccc12)C(=O)O; N(4-MeBn)Gly = Cc1ccc(CNCC(=O)O)cc1; dNle = CCCC[C@@H](N)C(=O)O; Nle = CCCC[C@H](N)C(=O)O; NBuGly = CCCCNCC(=O)O

Columns and labels:
[1] = tested on: Corynebacterium auriscanis, 31551; format: cell-based; conditions: 18 h
Text: (§1) For antibacterial spectrum the following strains were used: Corynebacterium auriscanis, 31551, (54 C6, dog, ear, 2013); Enterococcus faecalis, 27404, (17 C7, dog, wound, 2011); Enterococcus faecium, 30951, (24 C1, dog, ear, 2013); Streptococcus canis, 26740-1, (14 H1, dog, ear, 2010); Staphylococcus aureus, 27266, (16 G9, dog, skin, 2010); Staphylococcus aureus, 27266, (16 G9, dog, skin, 2010); Staphylococcus pseudintermedius 22963, (3 B9, dog, 2007). Acinetobacter baumannii, 27065, (16 D1, dog, wound, 2010); E. coli, 30235, 23 A6, dog, wound, 2012; Klebsiella pneumoniae, 26233, (11 H5, dog, wound, 2010); Pasteurella canis, 31096, (24 C8, dog, skin, 2013); Proteus mirabilis, 25178, (9 A4, dog, ear, 2009); Pseudomonas aeruginosa 26314, 12 C5, dog, urine, 2010). MIC determination was performed by broth microdilution according to the Clinical and Laboratory Standard Institute (CLSI, […]-A3, 2008)[62]. In brief, each bacterial strain was diluted to concentration of 5 × 10^5 CFU/mL in Mueller Hinton broth II (MHB II) media (Oxoid) and added to a two-fold serial dilution of peptides and peptide-peptoid hybrids concentrations ranging from 1 to 64 μg/ml in 96-well plates (Nunc Internationals, Rochester, NY). The MICs were determined as a lowest concentration showing no visible growth after incubation for 18 hours at 37 °C. Experiments were performed in triplicates on two different days.

[2] = tested on: Klebsiella pneumoniae, 26233; format: cell-based; conditions: 26233, 18 h
Text: as §1

[3] = tested on: Pasteurella canis, 31096; format: cell-based
Text: as §1

[4] = tested on: Enterococcus faecium, 30951; format: cell-based; conditions: 30951, 18 h
Text: as §1

[5] = tested on: Enterococcus faecalis, 27404; format: cell-based; conditions: 27404, 18 h
Text: as §1

[6] = tested on: Proteus mirabilis, 25178; format: cell-based; conditions: 25178, 18 h
Text: as §1

[7] = tested on: Acinetobacter baumannii, 27065; format: cell-based; conditions: 27065, 18 h
Text: as §1

[8] = tested on: Streptococcus canis, 26740-1; format: cell-based; conditions: 18 h
Text: as §1

[9] = tested on: P. aeruginosa 26314; assay: Time-kill kinetics, P. aeruginosa 26314; format: cell-based, Pseudomonas aeruginosa
Experimental: Time kill assays were performed in triplicate, meaning that every value is the average of three different samplings. Time–kill kinetic assays were performed using P. aeruginosa (26314), MRSP E104 and/or MRSP C22963 to determine the cell killing activity of B1 and two of its most promising analogues (compounds 23 and 26) based on prior antimicrobial susceptibility testing. The method reported by Blondeau et al.[63] was followed with minor modifications. […] After 0, 15, 30, 60, 120, 180 and 300 min of growth, 100 μL aliquots were collected and 10-fold serially diluted. Twenty μL of cell suspension from each dilution were spotted in triplicate on blood agar plates followed by 16–18 h incubation at 37 °C and determination of colony forming units (CFU).

[10] = tested on: S. aureus strains; format: cell-based, Staphylococcus aureus; conditions: 18 h
Text: as §1, with “2010). […] 25054, (8 G6, dog, wound, 2009); 27266, (16 G9, dog, skin, 2010 also used in exp above); 28264,(20 B1, dog, wound, 2011); 30935, (24 B9, dog, joint, 2013); 36968, (61 A9, dog, wound, 2016); 37595,(65 D2, dog, joint, 2016); 37708-2, (66 C6, dog, skin, 2016); 38200, (68 E9, dog, skin, 2016); 38565-1, (70 A5, dog, skin, 2017); 38841, (70 G5, dog, urine, 2017).” for “2010).”

SMILES	MIC Corynebacterium auriscanis [1] [µg/mL]	MIC Klebsiella pneumoniae [2] [µg/mL]	MIC Enterococcus faecium [4] [µg/mL]	MIC Enterococcus faecalis [5] [µg/mL]	MIC Proteus mirabilis [6] [µg/mL]	MIC Acinetobacter baumannii [7] [µg/mL]	MIC Streptococcus canis [8] [µg/mL]	MIC Staphylococcus aureus [10] [µg/mL]	MIC Pasteurella canis ([3]; 31096, 24 C8, dog, skin, 2013) [µg/mL]	MIC S. aureus strain 25054 [10] [µg/mL]	MIC S. aureus strain 27266 [10] [µg/mL]	MIC S. aureus strain 28264 [10] [µg/mL]	MIC S. aureus strain 30935 [10] [µg/mL]	MIC S. aureus strain 36968 [10] [µg/mL]	MIC S. aureus strain 37595 [10] [µg/mL]	MIC S. aureus strain 37708-2 [10] [µg/mL]	MIC S. aureus strain 38200 [10] [µg/mL]	MIC S. aureus strain 38565-1 [10] [µg/mL]	further results
CCCCN(CC(=O)N[C@@H](CCCCN)C(=O)N(CC(=O)N(CC(=O)N(CC(N)=O)Cc1cccc2ccccc12)Cc1ccc(C)cc1)Cc1cccc2ccccc12)C(=O)[C@H](CCCCN)NC(=O)[C@@H](N)CCCCN [B1, Lys-Lys-(NBu)Gly-Lys-(N1-Nal)Gly-(N4-MeBn)Gly-(N1-Nal)Gly] (H-KK[NBuGly]K[N(1-naphthylmethyl)Gly][N(4-MeBn)Gly][N(1-naphthylmethyl)Gly]-NH2)	4 (≈ 3.74 µM)	>64	16 (≈ 14.9 µM)	64 (≈ 59.8 µM)	>64	64 (≈ 59.8 µM)	4 (≈ 3.74 µM)	8 (≈ 7.47 µM)											MIC Pasteurella canis ([3]; 18 h): 8 µg/mL (≈ 7.47 µM); killing of P. aeruginosa 26314 ([9]; 1x MIC, delayed re-growth): did not eliminate; time to kill P. aeruginosa 26314 ([9]; 2x MIC): 24 h; time to kill P. aeruginosa 26314 ([9]; 4x MIC): 2 h; time to kill P. aeruginosa ([9]; 8 x MIC): less than 30 min; MICs for the three S. aureus isolates tested [10]: 4 to 8 µg/mL
CCCC[C@H](NC(=O)[C@H](CCCCN)NC(=O)[C@H](CCCCN)NC(=O)[C@@H](N)CCCCN)C(=O)N[C@@H](Cc1ccc2ccccc2c1)C(=O)N[C@@H](Cc1ccccc1)C(=O)N[C@@H](Cc1ccc2ccccc2c1)C(N)=O [Compound 23, Lys-Lys-Lys-Nle-(2-Nal)Ala-Phe-(2-Nal)Ala] (H-KKK[Nle][2Nal]F[2Nal]-NH2)	8 (≈ 7.57 µM)	>64	64 (≈ 60.6 µM)	>64	>64	64 (≈ 60.6 µM)	16 (≈ 15.1 µM)	32 (≈ 30.3 µM)	> 64	64 (≈ 60.6 µM)	32 to 64	64 (≈ 60.6 µM)	64 (≈ 60.6 µM)	64 (≈ 60.6 µM)	>64	32 (≈ 30.3 µM)	64 (≈ 60.6 µM)	64 (≈ 60.6 µM)	complete killing of P. aeruginosa ([9]; up to highest tested concentration (8x MIC)): not able to completely kill; also recorded: not able to eliminate
CCCC[C@@H](NC(=O)[C@H](CCCCN)NC(=O)[C@H](CCCCN)NC(=O)[C@@H](N)CCCCN)C(=O)N[C@H](Cc1cccc2ccccc12)C(=O)N[C@H](Cc1ccccc1)C(=O)N[C@H](Cc1cccc2ccccc12)C(N)=O [Compound 26, Lys-Lys-Lys-nle-(1-Nal)ala-phe-(1-Nal)ala] (H-KKK[dNle][d1Nal][dF][d1Nal]-NH2; N-terminus assumed)	32 (≈ 30.3 µM)	>64	>64	64 (≈ 60.6 µM)	>64	>64	>64	64 (≈ 60.6 µM)	> 64	>64	64 (≈ 60.6 µM)	>64	>64	>64	>64	>64	>64	>64	
